Key:
[1] = tested on: inhibitorischen Autorezeptoren in hippocampalem Gewebe; assay: Transmitter release study: in vitro acetylcholine release from electrically stimulated hippocampal slices, antagonism of carbachol; assay type: cell-based, Ratten; conditions: rat hippocampal slices 0,4 mm, preloaded with ³H-Cholin, electrical stimulation 3 Hz, agonist Carbachol
From the text: B. Transmitter Release Studien
Die Versuche zur in-vitro Freisetzung von Acetylcholin aus hippocampalen Gewebeschnitten wurden in Analogie zu Anord nungen durchgeführt, die für die Freisetzung von 5-HT aus Hypothalamus- bzw. Hippocampus-Gewebe beschrieben sind (vgl. M.H. Richards, Naunyn Schmiedeberg's Arch. Pharmacol. 329, 359-366 (1985) und T.J. Feuerstein, G. Hertting und R. Jackisch, Europ. J. Pharmacol. 107, 233-242 (1985)).
Männliche Ratten (Stamm Chbb:Thom, Gewicht 200 bis 300 g) wurden ohne Vorbehandlung dekapitiert; das gesamte Gehirn wurde sofort entnommen und unter Eiskühlung zerlegt. Gemäß den oben beschriebenen Verfahren wurde der Hippocampus in 0,4 mm dicke Schnitte mit Hilfe eines McIlwain-Gewebehackers geschnitten. Die Gewebeschnitte wurden 30 Minuten lang bei 37°C vorincubiert in Gegenwart von 0,05 mM ³H-Cholin in Krebs-Henseleit Puffer der folgenden Zusammensetzung: 120 mM NaCl, 4,8 mM KCl, 1,3 mM CaCl₂, 1,2 mM KH₂PO₄, 1,2 mM MgSO₄ und 25 mM NaHCO₃. Der Puffer enthielt zusätzlich 2 g Glucose und 100 mg EDTA. Der Puffer wurde mit Natronlauge auf einen pH-Wert von 7,4 bei 20°C eingestellt. Alle Lösungen wurden kontinuierlich mit 95 % O₂ und 5 % CO₂ gesättigt. Die Gewebeschnitte wurden daraufhin gespült, jeder Gewebeschnitt wurde jeweils willkürlich auf 12 Superfusionseinheiten gegeben und mit der Pufferlösung bei 37°C bei einer Fließgeschwindigkeit von 1 ml/min überspült. Die Gewebeschnitte wurden jeweils von einem Polypropylennetzwerk zwischen zwei Platinelektroden gehalten. Nach 50-minütiger Überspülung wurden 4-Minuten-Fraktionen des Superfusats über eine gesamte Zeitdauer von 92 Minuten gesammelt. Die Gewebeschnitte wurden zweimal elektrisch stimuliert, und zwar 60 Minuten (S1) und 100 Minuten (S2) nach Beginn der Superfusion. Dabei wurden Rechteckimpulse von 2 ms Dauer und mit einer Frequenz von 3 Hz 100 Sekunden lang bei 5 V/cm und 24 mA mittels eines HSE Stimulators II der Firma Hugo Sachs Elektronik, Hugstetten, West-Deutschland, verabreicht. Die zu prüfenden Substanzen wurden dem Puffer ab 20 Minuten vor dem Zeitpunkt S2 zusammen mit dem Agonisten (Carbachol) beigefügt. Am Ende wurden die Gewebeschnitte aus den Kammern entfernt und zur Bestimmung des verbliebenen Tritiums solubilisiert. […]

[2] = target: muscarinische Rezeptoren der Pia mater des Rindes; assay: Inhibition of 3H-NMS binding to muscarinic receptors in bovine pia mater vessel homogenate; design: species or system Rind; conditions: Hemmung der ³H-NMS-Bindung, 0,3 nM [³H]NMS, 45 min, room temperature
Protocol: A. Bindung verschiedener muskarinischer Antagonisten an Rezeptoren der Pia mater des Rindes
Die Pia-Gefäße von Rinder-Hirnen, erhalten vom lokalen Schlachthof, wurden präpariert und von Blutresten gereinigt. Je 0,5 g-Portionen wurden bei -80°C bis zur weiteren Verwendung gelagert. Zur Homogenatgewinnung wurden 0,5 g Pia-Gefäße mittels eines Gewebehackers zerkleinert, in 60 ml HEPES-Puffer (20 mM HEPES, 10 mM MgCl₂, 100 mM NaCl, pH 7,50) aufgenommen, mit einem Ultra-Turrax homogenisiert und 20 min. bei 0°C mit 48000 x g zentrifugiert. Das Pellet wurde erneut mit einem Ultra-Turrax homogenisiert, durch Mull filtriert und mit HEPES-Puffer auf eine Verdünnung von 1:140 bezogen auf das Feuchtgewicht der Gefäße verdünnt.
0,3 nM [³H]NMS (³H-N-Methylscopolamin) und steigende Konzentrationen des Antagonisten wurden mit dem Homogenat in einem Gesamtvolumen von 0,52 ml für 45 min. bei Raumtemperatur inkubiert. Der Inkubationsansatz wurde mit Hilfe eines Scatron Cell Harvesters über Glasfaser-Filtermatten filtriert und zweimal mit eiskalter physiologischer Kochsalzlösung gewaschen. Die Filter-gebundene Radioaktivität wurde in einem Flüssigkeitsszintillationszähler bestimmt. Als unspezifische Bindung wurde die gebundene Radioaktivität in Gegenwart von 10⁻⁶M (-)-Chinuclidinyl-benzilat definiert.

CCN(CC)CC1CCCCN1CC(=O)N1c2cc(Cl)ccc2C(=O)Nc2cccnc21 (racemic) [C, (±)-9-Chlor-11-[[2-[(diethylamino)methyl]-1-piperidinyl]acetyl]-5,11-dihydro-6H-pyrido[2,3-b][1,4]benzodiazepin-6-on]
ACh-Release aus Hippocampus-Gewebe (pA₂) [1]: 7,3 | -log IC₅₀ (M) [2]: 7,5 M

CCN(CC)CC1CCCCN1CC(=O)N1c2ccccc2C(=O)Nc2cccnc21 (single isomer, unassigned; (+)) [A, (+)-11-[[2-[(Diethylamino)methyl]-1-piperidinyl]acetyl]-5,11-dihydro-6H-pyrido[2,3-b][1,4]benzodiazepin-6-on]
ACh-Release aus Hippocampus-Gewebe (pA₂) [1]: 7,15 | -log IC₅₀ (M) [2]: 7,1 M

O=C1Nc2cccnc2N(C(=O)CCC#CCN2CCCCC2)c2ccccc21 [B, 5,11-Dihydro-11-[1-oxo-6-(1-piperidinyl)-4-hexin-1-yl]-6H-pyrido[2,3-b][1,4]benzodiazepin-6-on]
ACh-Release aus Hippocampus-Gewebe (pA₂) [1]: 7,2 | -log IC₅₀ (M) [2]: 6,9 M

CCCN(CCC)CC1CCCCN1CCNC(=O)N1c2ccccc2C(=O)Nc2cccnc21.CS(=O)(=O)O (centres unmarked) [D, 5,11-Dihydro-11-[[[2-[2-[(dipropylamino)methyl]-1-piperidinyl]ethyl]amino]carbonyl]-6H-pyrido[2,3-b][1,4]benzodiazepin-6-on-methansulfonat]
ACh-Release aus Hippocampus-Gewebe (pA₂) [1]: 8,35 | -log IC₅₀ (M) [2]: 7,9 M

O=C1Nc2cccnc2N(C(=O)N2CCCC(CCCN3CCCCC3)C2)c2ccccc21 (centres unmarked) [E, 5,11-Dihydro-11-[[3-[3-(1-piperidinyl)-1-propyl]-1-piperidinyl]carbonyl]-6H-pyrido[2,3-b][1,4]benzodiazepin-6-on]
ACh-Release aus Hippocampus-Gewebe (pA₂) [1]: 9,55 | -log IC₅₀ (M) [2]: 8,8 M

Cc1scc2c1N(C(=O)CN1CCC(CCCN3CCCCC3)CC1)c1ccccc1NC2=O [F, 4,9-Dihydro-3-methyl-4-[[4-[3-(1-piperidinyl)-1-propyl]-1-piperidinyl]acetyl]-10H-thieno[3,4-b][1,5]benzodiazepin-10-on]
ACh-Release aus Hippocampus-Gewebe (pA₂) [1]: 7,7 | -log IC₅₀ (M) [2]: 8,6 M

Cc1scc2c1N(C(=O)CCC#CCN1CCCCCC1)c1ccccc1NC2=O [H, 4,9-Dihydro-3-methyl-4-[6-(hexahydro-1H-1-azepinyl)-1-oxo-4-hexin-1-yl]-10H-thieno[3,4-b][1,5]benzodiazepin-10-on]
ACh-Release aus Hippocampus-Gewebe (pA₂) [1]: 8,0 | -log IC₅₀ (M) [2]: 8,0 M

CCN(CC)CC1COCCN1CCCC(=O)N1c2ccccc2C(=O)Nc2cccnc21 (centres unmarked) [I, 11-[4-[3-[(Diethylamino)methyl]-4-morpholinyl]-1-oxo-1-butyl]-5,11-dihydro-6H-pyrido[2,3-b][1,4]benzodiazepin-6-on]
ACh-Release aus Hippocampus-Gewebe (pA₂) [1]: 7,5 | -log IC₅₀ (M) [2]: 7,7 M

CN(CCC1CCCN1C)CC(=O)N1c2ccccc2C(=O)Nc2cccnc21 (centres unmarked) [K, 5,11-Dihydro-11-[[[2-(1-methyl-2-pyrrolidinyl)ethyl]methylamino]acetyl]-6H-pyrido[2,3-b][1,4]benzodiazepin-6-on]
ACh-Release aus Hippocampus-Gewebe (pA₂) [1]: 8,5 | -log IC₅₀ (M) [2]: 8,2 M

CN(CCC1CCCCCN1C)CC(=O)N1c2ccccc2C(=O)Nc2cccnc21 (centres unmarked) [L, 5,11-Dihydro-11-[[[2-(1-methyl-hexahydro-1H-2-azepinyl)ethyl]methylamino]acetyl]-6H-pyrido[2,3-b][1,4]benzodiazepin-6-on]
ACh-Release aus Hippocampus-Gewebe (pA₂) [1]: 8,45 | -log IC₅₀ (M) [2]: 8,4 M

From EP0402734A2, “Composition for the treatment of application of the central nervous system and to enhance cerebral perfusion” (Dr. Karl Thomae GmbH, priority 1989, dated 1990)
